Measured values published in patent US12502440B2, “Cross-linking compounds and methods of use thereof” (North Carolina State University, priority 2019, dated 2025).
“And” between values parts separate entries of the source, which are not always exact repeats. Equal values may be shown once.

Columns and labels:
[1] = tested on: β-glucosidase from almonds; assay: Indigogenic reaction with β-glucosidase from almonds; type: biochemical; details: as E1 but ε measured for 43 (footnote g)
[2] = target: T1, β-glucosidase from Agrobacterium (Agrobacterium sp., UniProt P12614); assay: Indigogenic reaction with β-glucosidase from Agrobacterium; type: biochemical; details: as E4 but ε measured for 43 (footnote g)
T1 construct: purchased Megazyme
T1 sequence (P12614 1-459): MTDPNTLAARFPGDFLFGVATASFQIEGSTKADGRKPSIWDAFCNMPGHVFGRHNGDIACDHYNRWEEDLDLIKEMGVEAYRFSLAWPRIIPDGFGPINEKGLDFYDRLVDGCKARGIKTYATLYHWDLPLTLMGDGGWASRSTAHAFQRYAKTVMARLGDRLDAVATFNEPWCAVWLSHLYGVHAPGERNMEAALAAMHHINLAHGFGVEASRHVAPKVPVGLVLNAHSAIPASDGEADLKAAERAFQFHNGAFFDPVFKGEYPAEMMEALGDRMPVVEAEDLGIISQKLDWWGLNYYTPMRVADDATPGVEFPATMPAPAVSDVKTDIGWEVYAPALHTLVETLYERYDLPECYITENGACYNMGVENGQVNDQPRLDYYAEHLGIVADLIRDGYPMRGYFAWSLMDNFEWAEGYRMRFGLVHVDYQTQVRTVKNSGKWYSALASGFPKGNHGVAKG
Experimental: Next, the β-glucosidase from Agrobacterium sp. was investigated as the trigger enzyme for indigoid dye formation. […] The reaction was carried out using the enzyme (200 nM) and indoxyl-glucoside 33 (100 μM) in phosphate buffer (pH 4-9, containing 2% DMF) at 37° C. […] Note that with 200 nM enzyme and 100 μM substrate, complete reaction requires 500 turnovers of each enzyme.
Reactions with β-glucosidase from Agrobacterium. An indoxyl compound in DMF (2 μL, 5 mM) and β-glucosidase from Agrobacterium in 10 mM phosphate buffer [2 μL, 10 μM, pH 7.0, containing 50 mM NaCl and 0.6 M (NH4)2SO4] were mixed with 50 mM phosphate buffer (96 μL, pH 7.0). The reaction mixture was incubated at 37° C. for 2 h and then centrifuged for 3 min. Any precipitate was separated from the supernatant and dissolved in DMF (200 μL). The resulting solution was analyzed by absorption spectroscopy. The experiment was repeated three times.

rat liver homogenate = assay: Indigoid-dye formation in rat liver homogenate; type: biochemical; details: as E7 but ε measured for 43 (footnote g)
Experimental: Finally, indigoid-dye formation was carried out in rat liver homogenate (Table 1, rightmost column).
Reactions in rat liver homogenate. An indoxyl compound in DMF (5 μL, 20 mM) was mixed with rat liver homogenate (95 μL). The reaction mixture was incubated at 37° C. for 24 h. After allowing to cool to room temperature, the reaction mixture was diluted with DMF (900 μL). The mixture was heated at 70° C. for 2 min and then centrifuged for 2 min. The supernatant was separated from any precipitate. This extraction procedure was repeated two or three times with DMF (100-500 μL). The combined supernatant (1500-1800 μL) was analyzed by absorption spectroscopy.

[3] = target: T2, β-glucosidase from Agrobacterium plus rat liver homogenate (Agrobacterium sp., UniProt P12614); assay: Reaction of 33 with β-glucosidase from Agrobacterium in rat liver homogenate; type: biochemical; details: 33 100 μM, enzyme 200 nM, rat liver homogenate with 2% DMF, 37° C., 4 h; ε measured for 43 (footnotes g,h)
T2 construct: purchased Megazyme
T2 sequence (P12614 1-459): T1 sequence (P12614 1-459)
Experimental: Reaction of 33 with β-glucosidase from Agrobacterium in rat liver homogenate. A DMF solution of 33 (2 μL, 5 mM) and β-glucosidase from Agrobacterium in 10 mM phosphate buffer [2 μL, 10 μM, pH 7.0, containing 50 mM NaCl and 0.6 M (NH4)2SO4] were mixed with rat liver homogenate (96 μL). The reaction mixture was incubated at 37° C. for 4 h and then centrifuged for 3 min. Any precipitate was separated from the supernatant and then suspended in DMF (200 μL). The suspension was centrifuged for 3 min. The supernatant was analyzed by absorption spectroscopy.

[4] = target: T3, β-glucosidase from Agrobacterium sp. (Agrobacterium sp., UniProt P12614); assay: Oligomerization of compound V with β-glucosidase; type: biochemical
T3 construct: purchased Megazyme
T3 sequence (P12614 1-459): T1 sequence (P12614 1-459)
Experimental: The oligomerization of compound V was examined by treatment with the enzyme-glucosidase. The reaction mixture contained 50 μM of compound V and 200 nM of β-glucosidase (250-fold ratio). The reaction mixture was only faintly blue but upon centrifugation after 5 h of incubation, a blue precipitate was obtained. According to the colors of samples (FIG. 13, panel A), the yield of precipitate is low by comparison with our previously reported enzyme-substrate pairs (see Example 1). Multiple additions of enzyme (4×0.20 μM of enzyme stock, every 2 h) and longer incubation times (10 h or 24 h) were also tested but no increase in solution intensity or precipitate was observed. For the samples after 300 min of incubation, the precipitates suspended in H2O were screened by optical microscopy (FIG. 13, panel B) and DLS (FIG. 13, panel C). The size of aggregates is between 100 and 1000 nm as measured by DLS, which is consistent with the images obtained by optical microscopy (˜1 μm).
Quantitation of the indigogenic compounds in the precipitate and supernatant was carried out by absorption spectroscopy and multicomponent analysis (MCA) (M. Taniguchi, et al., Photochem. Photobiol., 2018, 94, 277-289) (FIG. 13, panels D and E). MCA analysis is essential due to the overlaid spectra of indigo and coumarin at 362 nm, the peak wavelength for the coumarin. Spectral deconvolution relied on knowledge of the molar absorption coefficient at 362 nm of coumarin (εcou362=2.0×10^4 M^−1 cm^−1, measured in DMF) and indigo model compound F19 (see Example 1 where F-19 is compound 43) shown in Chart 2 (εind362=0.81×10^4 M^−1 cm^−1, measured in DMSO/H2O, v/v=2/1); and the molar absorption coefficient of F19 at 630 nm (εind630=2.6×10^4 M^−1 cm^−1, measured in DMSO/H2O, v/v=2/1). The residual upon MCA was smaller than any of the components, as required for accurate analysis (Y. Zhang, et al., Phytochem. Anal., 2018, 29, 205-216). In this manner, the precipitate is composed of 51.6 nmol of coumarin and 2.8 nmol of indigoid dye; the supernatant is composed of 11.1 nmol of coumarin and 0.3 nmol of indigoid dye.
Materials. DMF (HPLC grade) was purchased from Alfa Aesar. H2O (molecular biology grade) for buffer preparation was purchased from Millipore Sigma. Compound V (5.6 mg) was dissolved in DMF (26 μL) to prepare 100 mM stock solution. Pi buffer was prepared freshly at 10 mM, pH 7. The enzyme β-glucosidase from Agrobacterium sp. was purchased from MegaZyme and was dissolved in Pi buffer at 10 μM to prepare the stock solution.
To screen the oligomerization procedure of compound V, samples of Pi buffer (1859 μL), DMF (100 μL), […]-glucosidase stock (40 μL) and compound V stock (1 μL) were mixed in a 2-mL Eppendorf tube. The resulting mixed sample (2.0 mL) contains 50 μM of compound V as the substrate and 0.20 μM of β-glucosidase as the enzyme. Three identical samples were prepared for different assays. For a control sample, 40 μL of Pi buffer was added as a replacement for the β-glucosidase stock solution. The tubes were incubated at 37° C. for 5 h, and pictures of the tubes were captured at 0, 15, 30, 60, 120, 180 and 300 min. After 300 min, the tubes were centrifuged at 20,000×g for 10 min to isolate any precipitate from the supernatant. No precipitate formed in the control sample.
Three samples were treated differently for three assays: (1) for sample 1, the precipitate was dissolved in 100 μL of DMF for absorption screening; (2) for sample 2, the precipitate was suspended in 100 μL of H2O for microscopic imaging; and (3) for sample 3, the precipitate was suspended in 1000 μL of H2O for dynamic light scattering (DLS) assay. The supernatant of sample 1 was freeze-dried under high vacuum and afterwards dissolved in 100 μL of DMF for absorption screening. The absorption spectra of the precipitates and supernatants were employed for quantitation of indigo and coumarin. […]

[5] = Solubility in aqueous buffer; type: physicochemical; details: 100 mM phosphate buffer (pH 7.4, containing 100 mM NaCl), room temperature
From the text: Water solubility of the indoxyl glucoside is important for biological applications. […] Therefore, this compound is not suitable for bioconjugation. The synthesis of 34 relies on successive substitution of the dichloroanilinotriazine unit (derived from N,N-bis(2-methoxyethyl)aniline^31 and cyanuric chloride) with indoxyl-glucoside-PEG-OH and BCN-PEG-NH2 building blocks.
To improve the water solubility of the indoxyl species, a sulfobetaine unit^32,33 was incorporated as a water-solubilizing group. Sulfobetaines are stable zwitterions over a wide range of pH. Synthesis of an indoxyl bearing a sulfobetaine unit is illustrated in Scheme 6. Boc-piperazine (35) was treated with 1,3-propane sultone to afford 36 in 63% yield. Quaternization of the tertiary nitrogen atom in 36 with 3-bromopropanol gave Boc-protected sulfobetaine 37 in 69% yield. The Boc group was cleaved with trifluoroacetic acid (TFA) to afford piperazine-TFA salt 38 in 97% yield. The N-acetyl group of 32 was selectively deprotected with NaHCO3/MeOH in 84% yield. The product 39, piperazine-TFA salt 38, and BCN-amine 14 were assembled at a triazine ring via one-flask, successive substitution of cyanuric chloride to afford 40 in 51% yield. Cleavage of the acetyl groups of sulfobetaine 40 provided 41 in 98% yield.

[6] = 50 μM compound V (100 nmol), 200 nM β-glucosidase, 37° C., 300 min, MCA
[7] = 50 μM compound V (100 nmol), 200 nM β-glucosidase, 37° C., 300 min, absorption spectroscopy with MCA

SMILES	Yield (%) of indigoid dye, β-glucosidase from almonds [1]	Yield (%) of indigoid dye, β-glucosidase from Agrobacterium [2]	Yield (%) of indigoid dye, rat liver homogenate (rat liver homogenate) [%]	Yield (%) of indigoid dye, β-glucosidase from Agrobacterium plus rat liver homogenate [3]	total amount of coumarin calculated by MCA ([4]; 100 nmol compound V added) [nmol]	coumarin in the precipitate [4, 6] [nmol]	coumarin in the supernatant [4, 6] [nmol]	indigoid dye in the precipitate [4, 7] [nmol]	indigoid dye in the supernatant [4, 7] [nmol]	total quantity of indigoid dye ([4]; precipitate plus supernatant, 100 nmol compound V added) [nmol]	yield of indigoid dye ([4]; total indigoid dye, 100 nmol compound V added) [%]	solubility [5] [µM]
OCCOCCOCCOc1c(Br)cc2[nH]cc(O[C@@H]3O[C@H](CO)[C@@H](O)[C@H](O)[C@H]3O)c2c1Br [compound 33, 4,6-Dibromo-5-[1-hydroxy-3,6,9-trioxanon-9-yl]-1H-indol-3-yl β-D-glucopyranoside]	52% and 52^g %	99% and 99 ± 5^g %	< 5	81% and 81 ± 5%	–	–	–	–	–	–	–	–
Cc1cc(=O)oc2cc(NCCNc3nc(NCCOCCOCCOCCOCCOCCN=[N+]=[N-])nc(OCCC[N+]4(CCCS(=O)(=O)[O-])CCN(c5nc(OCCOCCOCCOc6c(Br)cc7[nH]cc(O[C@@H]8O[C@H](CO)[C@@H](O)[C@H](O)[C@H]8O)c7c6Br)nc(OCCOCCOCCOc6c(Br)cc7[nH]cc(O[C@@H]8O[C@H](CO)[C@@H](O)[C@H](O)[C@H]8O)c7c6Br)n5)CC4)n3)ccc12 [Compound V, 2,4-Bis[1-(3-(β-D-glucopyranosyloxy)-4,6-dibromo-1H-indol-5-yl)-1,4,7,10-tetraoxadec-10-yl]-6-[4-(3-(2-(1-azido-3,6,9,12,15-pentaoxoheptadecylamino)-4-[2-((4-methyl-2H-chromen-2-one-7-yl)amino)ethylamino]-1,3,5-triazin-6-yloxy)propyl)-4-(3-sulfopropyl)piperazin-1-yl]-1,3,5-triazine]	–	–	–	–	62.7	51.6	11.1	2.8	0.3	3.1	3.1	–
O=C(NCCOCCOCCNc1nc(OCCOCCOCCOc2c(Br)cc3[nH]cc(OC4O[C@H](CO)[C@@H](O)[C@H](O)[C@H]4O)c3c2Br)nc(N2CC[N+](CCCO)(CCCS(=O)(=O)[O-])CC2)n1)OC[C@@H]1[C@@H]2CCC#CCC[C@@H]21 (stereo partly shown) [compound 41]	–	106% and 106 ± 4^g %	–	–	–	–	–	–	–	–	–	> 400
